Experimental data taken from publication PMC8004929, “Whole-Body Pharmacokinetics and Physiologically Based Pharmacokinetic Model for Monomethyl Auristatin E (MMAE)” (Journal of Clinical Medicine, 2021).
Read-outs that look alike come from different tables or passages of the source. Square brackets hold non-standard residues; d marks the D form. Peptide text beside a SMILES is read from it. * marks the point of attachment. Dolaproine = CO[C@@H]([C@@H]1CCCN1)[C@@H](C)C(=O)O; Dil = CC[C@H](C)[C@H](NC)[C@@H](CC(=O)O)OC; X1 = C[C@@H](N*)[C@@H](O)c1ccccc1; NMeV = CN[C@H](C(=O)O)C(C)C

What was measured:
[1] = Whole-body biodistribution / PK study of MMAE in tumor-bearing mice (LC-MS/MS, NCA); format: in vivo; conditions: 0.1 mg/kg i.v.; for AUC0−t: observed conc. by LC-MS/MS, 3 mice per time point; for KPadj: KP adjusted for percentage of cellular volume in total tissue volume
Text: Male athymic nude mice were purchased at the age of 6 weeks from Charles River (Wilmington, NC, USA). After acclimation to the new conditions for two weeks, mice were subcutaneously injected with MDA-MB-468 (about 10 million tumor cells) into the right dorsal flank. The in vivo study adhered to the Principles of Laboratory Animal Care (National Institutes of Health publication 85–23, revised 1985) and were approved by the University at Buffalo Institutional Animal Care and Use Committee (IACUC# PHC29035Y).
A total of 18 mice (6 weeks old, 26–35 g) bearing MDA-MB-468 xenografts were used for the biodistribution studies. Then, 0.1 mg/kg MMAE was injected into the mice via the penile vein, and terminal samples were collected at 5 min and 1, 6, 12, 24, and 168 h. Three mice were sacrificed at each time point. Whole blood, tissue, and tumor were harvested. The collected tissues included the heart, liver, lung, spleen, pancreas, kidney, skin, bone, muscle, fat, and brain. Whole blood samples in ethylenediaminetetraacetic acid (EDTA) pre-coated tubes were centrifuged at 2000× g for 20 min at 4 °C, and plasma was collected and stored at −20 °C for further analysis. Harvested tissue samples were blotted dry and immediately frozen in liquid nitrogen and stored at −80 °C until homogenization.
A detailed tissue homogenization procedure has been reported previously. Briefly, different volumes of RIPA buffer containing protease inhibitor were added into the weighted tissue samples to obtain different dilution factors in each tissue. The dilution factor was 5 for heart, liver, lung, spleen, pancreas, kidney, skin, and fat, 8 for bone and muscle, and 4 for brain samples. Tissue samples were homogenized using a BeadBug™ microtube homogenizer (Benchmark, USA) at the maximum speed for 15 s followed by a 30-s ice cool down, and repeated three times. Blood samples without dilution were directly homogenized for 30 s at maximum speed and were treated the same way as tissue samples.
Then, 500 µL acetonitrile containing 0.1% formic acid was added into 100 µL of plasma, tissue, or tumor homogenate samples and then spiked with 20 µL of IS solution (D8-MMAE 150 ng/mL). After vortexing and centrifugation at 15,000× g for 15 min at 4 °C, the supernatants were transferred to glass tubes and dried under nitrogen flow at 32 °C. The dried residuals were reconstituted with 60 µL of acetonitrile/water (95:5 v/v) containing 0.1% formic acid, gently vortexed, and immediately transferred into HPLC vials.
Standards and quality control samples (QCs) were prepared for plasma and each tissue matrix. Then, 250 µL of the control plasma or matrices were spiked with 20 µL of IS solution (D8-MMAE 150 ng/mL) and 10 µL of MMAE stock solution diluted with acetonitrile, and then, 500 µL of acetonitrile containing 0.1% formic acid was added. The final concentrations of standard were 0.5, 1, 10, 100, 200, and 500 ng/mL. QCs were prepared similarly for the final concentrations of […].
A Waters Acquity LC-MS/MS system was used with electrospray interphase and triple quadrupole mass spectrometer. An ACQUITY UPLC BEH Amide column (Waters, Milford, MA, USA) was used with 5 mM ammonium formate and 0.1% formic acid as the aqueous phase, and 0.1% formic acid and 1 mM ammonium formate were used as the organic phase. The gradient flow rate was 0.25 mL/min. The lower limit of quantification of MMAE was […] (or ng/g) for plasma, blood, tissues, and tumor.
Noncompartmental analysis (NCA) was conducted for plasma PK data. AUC computed from time 0 to the last observed concentration time (AUC0−t) was calculated using the linear/log trapezoidal method in WinNonlin (version 8.1, Pharsight, St. Louis, MO, USA). Blood to plasma ratios ( KP,BC ) and tissue partition coefficients ( KP,i ) were calculated using Equation (1), using AUC0−t values derived from the observed data. (1) KP,BC or KP,i=AUCi,0−t/AUCp,0−t, […]

[2] = cited from earlier work
Method: The PBPK model well captured the PK in plasma, tissues, and tumor simultaneously. CLint was estimated with good precision (%CV = 8.92), and the optimized value was 137 mL/h. […] About 80% of MMAE excretes via feces, and only 6% excretes via urine. Therefore, we assumed that MMAE was eliminated only via metabolism and biliary/fecal excretion from the liver. […] For the derivation of CLint based on in vitro data, the CLint, vitro were estimated using human hepatocyte (3 µL/min/10^6 cells) and human ...

[3] = bile-duct cannulated rat; cited from earlier work
Method: The scaling factors used were 135 ± 10 (10^6 cells/g) for hepatocytes and 41.9 ± 24.5 (mg/g) for microsome studies. Metabolic CL and non-metabolic (mostly biliary) CL were assumed to account for 40% and 60% of total CL. This assumption is based on a human mass balance study and a bile-duct cannulated rat study, which reported that ≈60% of MMAE is excreted unchanged in the bile. As such, the CLint extrapolated from in vitro study was 109–126 mL/min (hepatocyte) and 121–462 mL/min (microsome). The CLint approximated from our in vivo data was 146 mL/min using the convent ...

[4] = NCA of plasma, tumor-bearing mice

CC[C@H](C)[C@@H]([C@@H](CC(=O)N1CCC[C@H]1[C@H](OC)[C@@H](C)C(=O)N[C@H](C)[C@@H](O)c1ccccc1)OC)N(C)C(=O)[C@@H](NC(=O)[C@@H](NC)C(C)C)C(C)C [MMAE, Monomethyl auristatin E] (H-[NMeV]V[Dil][Dolaproine]-X1)
KP (tissue-to-plasma partition coefficient) ([1]; MDA-MB-468 tumor AUC0−t / plasma AUC0−t, tumor-bearing mice): 8.21
AUC0−t ([1]; MDA-MB-468 tumor, tumor-bearing mice): 0.619 µM·h
half-life [1, 4]: 2.5 h
systemic CL [1, 4]: 60 mL/h
volume of distribution (Vss) [1, 4]: 42 mL
plasma AUC from 0 to 12 h ([1]; NCA, tumor-bearing mice): 54.3 ng·h/mL
plasma AUC from 0 to infinite ([1]; NCA, tumor-bearing mice): 54.5 ng·h/mL
injected dose remaining in plasma ([1]; after 5 min, tumor-bearing mice): 0.3%
blood-to plasma ratio ([1]; at 6 h, tumor-bearing mice): ≈ 20
KP (partition coefficient) ([1]; blood (blood cell) AUC0−t / plasma AUC0−t, tumor-bearing mice): 5.46
KPadj ([1]; blood, tumor-bearing mice): 5.46
AUC0−t ([1]; blood, MDA-MB-468 tumor-bearing mice): 0.414 µM·h
KPadj ([1]; bone, tumor-bearing mice): 1.89
AUC0−t ([1]; bone, MDA-MB-468 tumor-bearing mice): 0.11 µM·h
KP (tissue-to-plasma partition coefficient) ([1]; brain AUC0−t / plasma AUC0−t, tumor-bearing mice): 0.411
KPadj ([1]; brain, tumor-bearing mice): 0.530
AUC0−t ([1]; brain, MDA-MB-468 tumor-bearing mice): 0.0312 µM·h
blood-to plasma ratio ([1]; early time-points (<30 min), tumor-bearing mice): about 6
KP (tissue-to-plasma partition coefficient) ([1]; fat AUC0−t / plasma AUC0−t, tumor-bearing mice): 2.43
KPadj ([1]; fat, tumor-bearing mice): 3.01
AUC0−t ([1]; fat, MDA-MB-468 tumor-bearing mice): 0.184 µM·h
decrease of MMAE concentration in the tumor ([1]; from 1 to 168 h, MDA-MB-468 tumor, mice): 50%
KP (tissue-to-plasma partition coefficient) ([1]; heart AUC0−t / plasma AUC0−t, tumor-bearing mice): 17.9
KPadj ([1]; heart, tumor-bearing mice): 22.8
AUC0−t ([1]; heart, MDA-MB-468 tumor-bearing mice): 1.356 µM·h
KP (tissue-to-plasma partition coefficient) ([1]; kidney AUC0−t / plasma AUC0−t, tumor-bearing mice): 31.6
KPadj ([1]; kidney, tumor-bearing mice): 42.4
AUC0−t ([1]; kidney, MDA-MB-468 tumor-bearing mice): 2.396 µM·h
KP (tissue-to-plasma partition coefficient) ([1]; liver AUC0−t / plasma AUC0−t (apparent, not adjusted for CLint), tumor-bearing mice): 2.42
KPadj ([1]; liver, tumor-bearing mice): 3.80
AUC0−t ([1]; liver, MDA-MB-468 tumor-bearing mice): 0.176 µM·h
exposure relative to plasma exposure, highly perfused tissues ([1]; lung > spleen > liver > heart, tumor-bearing mice): > 15 fold
KP (tissue-to-plasma partition coefficient) ([1]; lung AUC0−t / plasma AUC0−t, tumor-bearing mice): 35.3
KPadj ([1]; lung, tumor-bearing mice): 64.9
AUC0−t ([1]; lung, MDA-MB-468 tumor-bearing mice): 2.679 µM·h
KP (tissue-to-plasma partition coefficient) ([1]; muscle AUC0−t / plasma AUC0−t, tumor-bearing mice): 1.25
KPadj ([1]; muscle, tumor-bearing mice): 1.51
AUC0−t ([1]; muscle, MDA-MB-468 tumor-bearing mice): 0.0946 µM·h
KP (tissue-to-plasma partition coefficient) ([1]; pancreas AUC0−t / plasma AUC0−t, tumor-bearing mice): 2.11
KPadj ([1]; pancreas, tumor-bearing mice): 2.93
AUC0−t ([1]; pancreas, MDA-MB-468 tumor-bearing mice): 0.16 µM·h
AUC0−t ([1]; plasma, MDA-MB-468 tumor-bearing mice, linear/log trapezoidal): 0.0754 µM·h
KP (tissue-to-plasma partition coefficient) ([1]; skin AUC0−t / plasma AUC0−t, tumor-bearing mice): 1.71
KPadj ([1]; skin, tumor-bearing mice): 2.87
AUC0−t ([1]; skin, MDA-MB-468 tumor-bearing mice): 0.13 µM·h
KP (tissue-to-plasma partition coefficient) ([1]; spleen AUC0−t / plasma AUC0−t, tumor-bearing mice): 27.1
KPadj ([1]; spleen, tumor-bearing mice): 47.2
AUC0−t ([1]; spleen, MDA-MB-468 tumor-bearing mice): 2.056 µM·h
KP in the liver after accounting for CLint, without adjustments for the fractional cellular volume ([1]; tumor-bearing mice): 25.3
exposure relative to plasma exposure, fat, pancreas, skin, bone, and muscle ([1]; tumor-bearing mice): about 2 fold
time up to which MMAE concentration in the liver was quantifiable ([1]; tumor-bearing mice, LLOQ 0.2 ng/g): 6 h
Plasma concentration after 12 h ([1]; tumor-bearing mice, LLOQ 0.2 ng/mL, LC-MS/MS): below the limit of quantification
in vitro CLint (CLint, vitro) ([2]; human liver hepatocyte): 3 µL/min/10^6 cells
in vitro CLint (CLint, vitro) ([2]; human liver microsome): 24 µL/min/mg
MMAE excreted unchanged in the bile [3]: ≈ 60%
